As a reminder, the IC50 is the concentration needed to halve the response being measured.

For the test, the target named is kappa opioid receptor (OPRK1) (Homo sapiens (Human), UniProt P41145). Put plainly: OPRK1 antagonist assay (b-arrestin-2-TEV / b-lactamase reporter cell line, EC80 U-50488 challenge). The test is classed as cell-based. To be noted: read-out: IC50 nM (% inhib if other than 50%); antagonist mode vs EC80 U-50488; NA = not active at concentrations up to 10 μM.
kappa opioid receptor (OPRK1), sequence (P41145 whole entry): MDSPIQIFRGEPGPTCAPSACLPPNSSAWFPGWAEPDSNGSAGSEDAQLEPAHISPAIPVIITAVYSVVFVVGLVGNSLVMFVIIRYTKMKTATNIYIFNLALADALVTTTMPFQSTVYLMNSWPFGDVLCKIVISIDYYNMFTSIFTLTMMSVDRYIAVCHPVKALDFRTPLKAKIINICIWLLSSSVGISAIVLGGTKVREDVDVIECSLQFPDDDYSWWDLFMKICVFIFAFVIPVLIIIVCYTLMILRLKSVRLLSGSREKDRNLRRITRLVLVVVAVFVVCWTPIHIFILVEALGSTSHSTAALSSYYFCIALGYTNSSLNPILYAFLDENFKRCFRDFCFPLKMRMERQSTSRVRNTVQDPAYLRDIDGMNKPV
Turning to `Cc1noc(-c2cc(Br)cnc2N2CC[C@@H](NC3CCCCC3)[C@H](O)C2)n1` [compound 136], the IC50 came to 49 nM.
The result for `COC1CN(c2ncc(Br)cc2C(C)=O)CCC1NC1CCCCC1` (stereo not shown) [C61] reads 10000 nM; that for `COC1CN(c2nc3cc(C)ccc3cc2-c2nc(C)no2)CCC1NC1CCCCC1` (stereo not shown) [compound 228], 21 nM.
With `COC(=O)c1cc(Br)cnc1N1CCC(N(C)C2CCCCC2)C(O)C1` (stereo not shown) [compound 51], the 50% inhibitory concentration (IC50) is 3000 nM.
Consider `CCOC(=O)/C=C/c1cnc(N2CCC(NC3CCCCC3)CC2)c(C(=O)OC)c1` [C59], for which the half-maximal inhibitory concentration (IC50) is above 20000 nM.
The result for `CC(=O)c1cc2cc(C)ccc2nc1N1CCC(NC2CCCCC2)CC1` [compound 479] reads 211 nM.
On to `Cc1ccc2nc(N3CCC(NC4CCCCC4)C(CO)C3)c(-c3nc(C4CC4)no3)cc2c1` (stereo not shown) [compound 304], for which the IC50 was found to be 3.5 nM.
The result for `COC(=O)c1cc(Br)cnc1N1CCC(N[C@@H]2CCCCC[C@H]2O)CC1` [compound 27] reads 473 nM; that for `CCC1(CO)CN(c2nc3ccccc3cc2-c2nc(C)no2)CCC1NC1CCCCC1` (stereo not shown) [compound 208], 76 nM; that for `Cc1nc(-c2cc3cc(F)ccc3nc2N2CCC(N[C@H]3CCC[C@@H]3O)CC2)no1` [compound 474], 1900 nM.
The result for `COC(=O)c1cc(C)cnc1N1CCC(NC2CCCCC2)C(CO)C1` (stereo not shown) [compound 109] reads 198 nM; that for `COC1CN(c2nc3ccc(C)cc3cc2-c2nc(C)no2)CCC1NC1CCCCC1` (stereo not shown) [compound 214], 3 nM.
The result for `Cc1cnc(N2CC[C@@H](NC3CCCCC3)[C@H](O)C2)c(-c2ncccn2)c1` [compound 244] reads 566 nM; that for `CC(C)OC(=O)c1cc(Br)cnc1N1CC[C@@H](NC2CCCCC2)[C@H](O)C1` [compound 135], 1630 nM; that for `COC1CN(c2nc3ccc(C)cc3cc2-c2nc(C)no2)CCC1NC1CCOCC1` (stereo not shown) [compound 326], 1.9 nM.
`CC(=O)c1cc(Br)cnc1N1CCC(NC2CCCCC2)CC1` [compound 96]: the IC50 was determined as 6700 nM.
The result for `COC(=O)c1cc(Br)cnc1N1CCC(NC2CCCCC2)CC1` [compound 7] reads 133 nM; that for `Cc1ccc2nc(N3CC[C@@H](NC4CCCCC4)[C@H](O)C3)c(-c3nc(C)no3)cc2c1` [compound 213], 8.5 nM.
Regarding `COC1CN(c2nc3ccc(Cl)cc3cc2-c2nc(C)no2)CCC1NC1CCCCC1` (stereo not shown) [compound 240], the IC50 is 14 nM.
For `COC(=O)c1cc(Br)cnc1N1CCC(NC2CCCC(C)C2C)CC1` (stereo not shown) [compound 23], the IC50 was determined as 854 nM.
Turning to `CCOC(=O)c1cc(Br)cnc1N1CCC(NC2CCCCC2)C(OC)C1` (stereo not shown) [compound 146], the IC50 was 85 nM.
The result for `CCOC(=O)c1cc(Br)cnc1N1CC[C@@H](NC2CCCCC2)[C@H](O)C1` [compound 134] reads 23 nM; that for `Cc1nc(-c2cc3cc(C)c(F)cc3nc2N2CCC(NC3CCCC3)CC2)no1` [compound 512], 12 nM; that for `COC(=O)c1cc(I)cnc1N1CCC(NC2CCCCC2)C(CO)C1` (stereo not shown) [compound 77], 11 nM.
On to `COC1CN(c2nc(C)c(C)cc2-c2nc(C)no2)CCC1NC1CCCCC1` (stereo not shown) [compound 165], for which the IC50 came out at 19 nM.
The result for `Cc1noc(-c2cc3cc(C)c(F)cc3nc2N2CCC(NCC(C)C)CC2)n1` [compound 498] reads 33 nM.
Take `COC(=O)c1cc(Br)cnc1N1CCC(NC2CCOCC2)C(CO)C1` (stereo not shown) [compound 81]: the IC50 came to 126 nM.
The result for `Cc1noc(-c2cc3ccccc3nc2N2CCC(NC3CCCCC3C)C(CO)C2)n1` (stereo not shown) [compound 206] reads 33 nM.
The result for `CCOC(=O)c1cc(C#N)c(C)nc1N1CCC(NC2CCCCC2)C(CO)C1` (stereo not shown) [C52] reads above 20000 nM; that for `COC1CN(c2ncc(Br)cc2-c2nc(C)no2)CCC1NC1CCCCC1` (stereo not shown) [compound 143], 100 nM; that for `Cc1cnc(N2CCC(NC3CCCCC3)C(CO)C2)c(-c2nc(C)no2)c1` (stereo not shown) [compound 152], 30 nM.
